Test systems include LOX IMVI melanoma; EKVX NSCLC; 786-0 renal; SK-MEL-2 melanoma; M14 melanoma; NCI-H23 lung; TK-10 renal; OVCAR-5 ovarian; CCRF-CEM leukemia.
Holding throughout (assay): NCI tumour cell line growth inhibition, 48 h

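Cells were grown in 96-well plates and exposed to each compound for 48 hours at five concentrations; endpoints were interpolated linearly between bracketing concentrations, or set to the highest concentration if not reached. GI50 is the concentration that inhibits growth by half. TGI: total growth inhibition.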

Regarding `N.N.N.N.N#N.N#N.[Cl-].[Os+6]`, the GI50 in the test with LOX IMVI melanoma, in the test on EKVX NSCLC, in the test on 786-0 renal, in the test with SK-MEL-2 melanoma, with M14 melanoma and with NCI-H23 lung was greater than 100 µM in each case. Moreover, the GI50 in the test with TK-10 renal and in the test with OVCAR-5 ovarian was greater than 100 µM throughout. The TGI with LOX IMVI melanoma, in the test on EKVX NSCLC, with 786-0 renal, in the test on SK-MEL-2 melanoma, in the test on M14 melanoma and in the test on NCI-H23 lung was greater than 100 µM in each case. The TGI in the test with TK-10 renal and in the test on OVCAR-5 ovarian was greater than 100 µM in each case.
For the molecule `S=C1SCC2CCCN12` (stereo not given), the TGI in the test on CCRF-CEM leukemia, in the test with LOX IMVI melanoma, in the test on 786-0 renal, in the test on SK-MEL-2 melanoma, with M14 melanoma and in the test with TK-10 renal was greater than 100 µM each time. The same molecule showed a TGI with OVCAR-5 ovarian greater than 100 µM.
In the case of `Cc1cccc(NC(=O)c2c(N)[n+]([O-])c3ccccc3[n+]2[O-])c1`, the TGI in the test on CCRF-CEM leukemia is greater than 100 µM; in the test on EKVX NSCLC it was 31.3 µM; with 786-0 renal, 17.9 µM; in the test with SK-MEL-2 melanoma it was 23.3 µM; in the test with M14 melanoma, 24.9 µM; with NCI-H23 lung, 23.4 µM. This molecule also gave a TGI in the test on OVCAR-5 ovarian of 42.3 µM.
In the case of `O=C(n1c2ccccc2c2n[nH]c(=S)nc21)C(F)(F)F`, the TGI in the test with CCRF-CEM leukemia, with LOX IMVI melanoma, in the test with EKVX NSCLC, in the test on 786-0 renal, in the test with M14 melanoma and in the test on NCI-H23 lung was greater than 100 µM in each case. Moreover, the TGI in the test with TK-10 renal and in the test with OVCAR-5 ovarian was greater than 100 µM throughout.
Turning to `COc1ccc2c(c1OC)C(=O)C2`, the TGI in the test on CCRF-CEM leukemia, in the test with LOX IMVI melanoma, in the test with EKVX NSCLC, in the test with 786-0 renal, in the test on SK-MEL-2 melanoma and in the test on M14 melanoma was greater than 100 µM throughout. The TGI with NCI-H23 lung and in the test on TK-10 renal was greater than 100 µM each time.
In the case of `CN(C)CCCNc1ccnc2c([N+](=O)[O-])cccc12`, the TGI is 96 µM with CCRF-CEM leukemia; 39 µM with LOX IMVI melanoma; 36 µM with EKVX NSCLC; greater than 100 µM in the test on 786-0 renal; greater than 100 µM in the test with M14 melanoma; 31.3 µM with NCI-H23 lung. In the test with TK-10 renal, the TGI was greater than 100 µM.
Regarding `CC(C)(C)C1=CC(=N/N=c2\scc(-c3ccccc3)n2Cc2ccccc2)C=C(C(C)(C)C)C1=O`, the TGI in the test with CCRF-CEM leukemia, in the test with LOX IMVI melanoma, in the test with EKVX NSCLC, in the test with 786-0 renal, in the test on SK-MEL-2 melanoma and with M14 melanoma was greater than 100 µM throughout. The TGI in the test with NCI-H23 lung and in the test with OVCAR-5 ovarian was greater than 100 µM each time.
`COC1CCCc2c(OC(C)=O)ccc(OC(C)=O)c21` (stereo not given): the TGI in the test with LOX IMVI melanoma, in the test with 786-0 renal, in the test with SK-MEL-2 melanoma, with M14 melanoma, in the test with NCI-H23 lung and with TK-10 renal was greater than 100 µM each time. The molecule further had a TGI in the test with OVCAR-5 ovarian greater than 100 µM.
With `CC(=O)OC1(Sc2ccccc2)CC2[C@H]3COC(C)(C)O[C@H]3CC[C@@]2(C)CC1=O` (stereo not given in full), the TGI with EKVX NSCLC, with 786-0 renal, with SK-MEL-2 melanoma, in the test with M14 melanoma, in the test on NCI-H23 lung and with TK-10 renal was greater than 100 µM throughout. The molecule further returned a TGI in the test on OVCAR-5 ovarian greater than 100 µM.
On to `Cc1nc2ccccc2c(=O)n1/N=C(\N=Nc1ccc(Cl)cc1)c1cccc(-c2ccco2)c1`, for which the TGI in the test with CCRF-CEM leukemia was 88.2 µM; in the test on LOX IMVI melanoma, greater than 100 µM; in the test on EKVX NSCLC, greater than 100 µM; in the test on 786-0 renal, greater than 100 µM; with M14 melanoma, greater than 100 µM; in the test with NCI-H23 lung, 65.2 µM. This molecule yielded a TGI in the test with TK-10 renal greater than 100 µM.
`COC(=O)NC1(NC(=O)OC)NC(=O)c2ccccc2N1`: the TGI with CCRF-CEM leukemia, with EKVX NSCLC, in the test with 786-0 renal, in the test with SK-MEL-2 melanoma, in the test with M14 melanoma and in the test on NCI-H23 lung was greater than 100 µM each time. Further, the TGI with TK-10 renal and in the test with OVCAR-5 ovarian was greater than 100 µM each time.
Consider `O=c1[nH]c2nc3ccccc3c(=O)n2nc1Cc1ccccc1`, for which the TGI in the test with CCRF-CEM leukemia, with LOX IMVI melanoma, with EKVX NSCLC, with 786-0 renal, in the test on SK-MEL-2 melanoma and in the test with M14 melanoma was greater than 100 µM in each case. Further, the TGI with NCI-H23 lung and with OVCAR-5 ovarian was greater than 100 µM in each case.
Turning to `O=C(c1ccccc1)c1nc2c(Cl)ccc(Cl)c2cc1C(Br)Br`, the TGI in the test on CCRF-CEM leukemia was 1.33 µM; in the test on LOX IMVI melanoma, 3.07 µM; in the test on 786-0 renal, 0.983 µM; with SK-MEL-2 melanoma, 4.34 µM; with M14 melanoma it was 2.89 µM; in the test with TK-10 renal it was 2.81 µM. This molecule registered a TGI in the test on OVCAR-5 ovarian of 2.29 µM.

The values above are taken from PubChem BioAssay (NCI).
